{"source": "patent US20240325398A1", "about": "“COMBINATION THERAPIES” (Infinity Pharmaceuticals, Inc., priority 2014, published 2024)", "key": {"NCI-H929": {"tested_on": "NCI-H929", "assay": "Combination study, ATPLite 72 h, dose matrix (Synergy Score, CI50)", "details": "combination with Compound 1"}, "SU-DHL-4-epst": {"tested_on": "SU-DHL-4-epst", "assay": "Combination study, ATPLite 72 h, dose matrix (Synergy Score, CI50)", "details": "combination with Compound 1, 72 h"}, "SU-DHL-10-epst": {"tested_on": "SU-DHL-10-epst", "assay": "Combination study, ATPLite 72 h, dose matrix (Synergy Score, CI50)", "details": "combination with Compound 1, 72 h"}, "Jeko-1": {"tested_on": "Jeko-1", "assay": "Combination study, ATPLite 72 h, dose matrix (Synergy Score, CI50)", "details": "combination with Compound 1"}, "TMD8": {"tested_on": "TMD8", "assay": "Combination study, ATPLite 72 h, dose matrix (Synergy Score, CI50)", "details": "combination with Compound 1; TMD8; 72 h"}, "RPMI-8226": {"tested_on": "RPMI-8226", "assay": "Combination study, ATPLite 72 h, dose matrix (Synergy Score, CI50)", "details": "combination with Compound 1"}, "DOHH-2": {"tested_on": "DOHH-2", "assay": "Combination study, ATPLite 72 h, dose matrix (Synergy Score, CI50)", "details": "combination with Compound 1, 72 h"}, "KARPAS-299": {"tested_on": "KARPAS-299", "assay": "Combination study, ATPLite 72 h, dose matrix (Synergy Score, CI50)", "details": "combination with Compound 1", "protocol": "(§1) Cells are thawed from a liquid nitrogen preserved state. Once cells have been expanded and divide at their expected doubling times, screening begins. Cells are seeded in growth media in either black 1536-well or 384-well tissue culture treated plates. Cells are then equilibrated in assay plates via centrifugation and placed in incubators attached to the Dosing Modules at 37° C. for 24 hours before treatment. […] These Tzero (To) plates are read using ultra-sensitive luminescence on Envision plate readers (Perkin Elmer). Treated assay plates are incubated with compound for 72 hours. After 72 hours, plates are developed for endpoint analysis using ATPLite. All data points are collected via automated processes, quality controlled and analyzed using Zalicus software.\n(§2) where T is treated cell count and V is untreated (vehicle) cell count (at 72 hours). I ranges from 0% (when T=V) to 100% (when T=0). […] The measure of effect in the experiment can be the inhibition of cellular response relative to the untreated level (vehicle alone). […] The inhibition ranges from 0% at the untreated level to 100% when T=0. Inhibition levels are negative for agents that actually increase levels. Other effect measures, such as an activity ratio r=T/V may be more appropriate for some assays. When activity ratios (e.g, fold increase over stimulated control) are being used, the effect can be measured using an induction 1=ln(T/V). With this definition, all effect expressions are the same as for inhibition.\n(§3) Growth Inhibition (GI) is used as a measure of cell viability. […] A GI reading of 100% represents complete growth inhibition—T72 compound-treated and T0 vehicle signals are matched. […] A GI reading of 200% represents complete death of all cells in the culture well. Compounds reaching an activity plateau of GI 200% are considered cytotoxic. GI is calculated by applying the following test and equation:\n(§4) Combination analysis data were collected in a 6×6 dose matrix. Synergy is calculated by comparing a combination's response to those of its single compound, against the drug-with-itself dose-additive reference model. Deviations from dose additivity may be assessed visually on an isobologram or numerically with a Combination Index (CI). […] Additive effect is CI=1.0. […] Antagonistic effect is CI>1.0.\n(§5) To measure combination effects in excess of Loewe additivity, a scalar measure to characterize the strength of synergistic interaction termed the Synergy Score is devised. The Synergy Score is calculated as:\n(§6) The fractional inhibition for each component agent and combination point in the matrix is calculated relative to the median of all vehicle-treated control wells. The Synergy Score equation integrates the experimentally-observed activity volume at each point in the matrix in excess of a model surface numerically derived from the activity of the component agents using the Loewe model for additivity. Additional terms in the Synergy Score equation (above) are used to normalize for various dilution factors used for individual agents and to allow for comparison of synergy scores across an entire experiment. The inclusion of positive inhibition gating or an Idata multiplier removes noise near the zero effect level, and biases results for synergistic interactions at that occur at high activity levels.\n(§7) Loewe Volume (Loewe Vol) is used to assess the overall magnitude of the combination interaction in excess of the Loewe additivity model. Loewe Volume is particularly useful when distinguishing synergistic increases in a phenotypic activity (positive Loewe Volume) versus synergistic antagonisms (negative Loewe Volume). […] This model defines additivity as a non-synergistic combination interaction where the combination dose matrix surface should be indistinguishable from either drug crossed with itself."}, "Farage": {"tested_on": "Farage", "assay": "Combination study, ATPLite 72 h, dose matrix (Synergy Score, CI50)", "details": "combination with Compound 1; Farage; 72 h", "protocol": "as §1, §2, §3, §4\nThe isobologram was drawn by identifying the locus of concentrations that correspond to crossing the indicated inhibition level. This is done by finding the crossing point for each single agent concentration in a dose matrix across the concentrations of the other single agent. Practically, each vertical concentration CY is held fixed while a bisection algorithm is used to identify the horizontal concentration CX in combination with that vertical dose that gives the chosen effect level in the response surface Z(CX,CY). These concentrations are then connected by linear interpolation to generate the isobologram display. For synergistic interactions, the isobologram contour fall below the additivity threshold and approaches the origin, and an antagonistic interaction would lie above the additivity threshold. The error bars represent the uncertainty arising from the individual data points used to generate the isobologram. The uncertainty for each crossing point is estimated from the response errors using bisection to find the concentrations where Z−αZ(CX,CY) and Z+σZ(CX,CY) cross Icut, where αZ is the standard deviation of the residual error on the effect scale.\nas §5\nThe fractional inhibition for each component agent and combination point in the matrix is calculated relative to the median of all vehicle-treated control wells."}, "Mino": {"tested_on": "Mino", "assay": "Combination study, ATPLite 72 h, dose matrix (Synergy Score, CI50)", "details": "combination with Compound 1", "protocol": "as §1, §2, §3, §4, §5, §6, §7"}, "OCI-Ly3": {"tested_on": "OCI-Ly3", "assay": "Combination study, ATPLite 72 h, dose matrix (Synergy Score, CI50)", "details": "combination with Compound 1; OCI-Ly3; 72 h"}, "RL": {"tested_on": "RL", "assay": "Combination study, ATPLite 72 h, dose matrix (Synergy Score, CI50)", "details": "combination with Compound 1, 72 h"}, "OCI-Ly7": {"tested_on": "OCI-Ly7", "assay": "Combination study, ATPLite 72 h, dose matrix (Synergy Score, CI50)", "details": "combination with Compound 1, 72 h", "protocol": "as §1\nThe measure of effect in the experiment can be the inhibition of cellular response relative to the untreated level (vehicle alone). […] The inhibition ranges from 0% at the untreated level to 100% when T=0. Inhibition levels are negative for agents that actually increase levels.\nas §3, §4, §5, §6\nLoewe Volume (Loewe Vol) is used to assess the overall magnitude of the combination interaction in excess of the Loewe additivity model. Loewe Volume is particularly useful when distinguishing synergistic increases in a phenotypic activity (positive Loewe Volume) versus synergistic antagonisms (negative Loewe Volume). […] This model defines additivity as a non-synergistic combination interaction where the combination dose matrix surface should be indistinguishable from either drug crossed with itself. The calculation for Loewe additivity is:"}, "WSU-NHL": {"tested_on": "WSU-NHL", "assay": "Combination study, ATPLite 72 h, dose matrix (Synergy Score, CI50)", "details": "combination with Compound 1, 72 h"}, "U-2932": {"tested_on": "U-2932", "assay": "Combination study, ATPLite 72 h, dose matrix (Synergy Score, CI50)", "details": "combination with Compound 1, 72 h"}, "OMP-2": {"tested_on": "OMP-2", "assay": "Combination study, ATPLite 72 h, dose matrix (Synergy Score, CI50)", "details": "combination with Compound 1; OPM-2"}, "[1]": {"assay": "Combination study, ATPLite 72 h, dose matrix (Synergy Score, CI50)", "details": "combination with Compound 1; OPM-2"}, "GRANTA-519": {"tested_on": "GRANTA-519", "assay": "Combination study, ATPLite 72 h, dose matrix (Synergy Score, CI50)", "details": "combination with Compound 1", "protocol": "as §1, §2, §3, §4, §5, §6, §7"}, "KARPAS-422": {"tested_on": "KARPAS-422", "assay": "Combination study, ATPLite 72 h, dose matrix (Synergy Score, CI50)", "details": "combination with Compound 1, 72 h"}, "HH": {"tested_on": "HH", "assay": "Combination study, ATPLite 72 h, dose matrix (Synergy Score, CI50)", "type": "cell-based", "details": "combination with Compound 1", "experimental": "The method is described as follows.\nAdditive effect is CI=1.0. […] Antagonistic effect is CI>1.0.\nThe Synergy Score is calculated as: […]"}, "HBL-1": {"tested_on": "HBL-1", "assay": "Combination study, ATPLite 72 h, dose matrix (Synergy Score, CI50)", "details": "combination with Compound 1, 72 h"}}}
{"smiles": "CS(=O)(=O)N1CCN(Cc2cc3nc(-c4cccc5[nH]ncc45)nc(N4CCOCC4)c3s2)CC1", "note": "[GDC-0941, 2-(1H-indazol-4-yl)-6-((4-(methylsulfonyl)piperazin-1-yl)methyl)-4-morpholinothieno[3,2-d]pyrimidine]", "values": [{"measurement": "CI50 growth inhibition", "setting": "NCI-H929", "result": "T (T=0.5 to <0.7)"}, {"measurement": "CI50 inhibition", "setting": "NCI-H929", "result": "T (T=0.5 to <0.7)"}, {"measurement": "Synergy Score growth inhibition", "setting": "NCI-H929", "result": "A3 (A3=>3)"}, {"measurement": "Synergy Score inhibition", "setting": "NCI-H929", "result": "A2 (A2=1 to <3)"}, {"measurement": "CI50 growth inhibition", "setting": "SU-DHL-4-epst", "result": "T (T=0.5 to <0.7)"}, {"measurement": "CI50 inhibition", "setting": "SU-DHL-4-epst", "result": "T (T=0.5 to <0.7)"}, {"measurement": "Synergy Score growth inhibition", "setting": "SU-DHL-4-epst", "result": "A3 (A3=>3)"}, {"measurement": "Synergy Score inhibition", "setting": "SU-DHL-4-epst", "result": "A2 (A2=1 to <3)"}, {"measurement": "CI50 growth inhibition", "setting": "SU-DHL-10-epst", "result": "S (S=0.01 to <0.5)"}, {"measurement": "CI50 inhibition", "setting": "SU-DHL-10-epst", "result": "T (T=0.5 to <0.7)"}, {"measurement": "Synergy Score growth inhibition", "setting": "SU-DHL-10-epst", "result": "A3 (A3=>3)"}, {"measurement": "Synergy Score inhibition", "setting": "SU-DHL-10-epst", "result": "A2 (A2=1 to <3)"}, {"measurement": "CI50 growth inhibition", "setting": "Jeko-1", "result": "S (S=0.01 to <0.5)"}, {"measurement": "CI50 inhibition", "setting": "Jeko-1", "result": "S (S=0.01 to <0.5)"}, {"measurement": "Synergy Score growth inhibition", "setting": "Jeko-1", "result": "A1 (A1=0.0001 to <1)"}, {"measurement": "Synergy Score inhibition", "setting": "Jeko-1", "result": "A1 (A1=0.0001 to <1)"}, {"measurement": "CI50 growth inhibition", "setting": "TMD8", "result": "U (U=0.7 to <1)"}, {"measurement": "CI50 inhibition", "setting": "TMD8", "result": "W (W=≥1)"}, {"measurement": "Synergy Score growth inhibition", "setting": "TMD8", "result": "A3 (A3=>3)"}, {"measurement": "Synergy Score inhibition", "setting": "TMD8", "result": "A2 (A2=1 to <3)"}, {"measurement": "CI50 growth inhibition", "setting": "RPMI-8226", "result": "U (U=0.7 to <1)"}, {"measurement": "CI50 inhibition", "setting": "RPMI-8226", "result": "W (W=≥1)"}, {"measurement": "Synergy Score growth inhibition", "setting": "RPMI-8226", "result": "A2 (A2=1 to <3)"}, {"measurement": "Synergy Score inhibition", "setting": "RPMI-8226", "result": "A1 (A1=0.0001 to <1)"}, {"measurement": "CI50 growth inhibition", "setting": "DOHH-2", "result": "T (T=0.5 to <0.7)"}, {"measurement": "CI50 inhibition", "setting": "DOHH-2", "result": "T (T=0.5 to <0.7)"}, {"measurement": "Synergy Score growth inhibition", "setting": "DOHH-2", "result": "A3 (A3=>3)"}, {"measurement": "Synergy Score inhibition", "setting": "DOHH-2", "result": "A2 (A2=1 to <3)"}, {"measurement": "CI50 growth inhibition", "setting": "KARPAS-299", "result": "W (W=≥1)"}, {"measurement": "Synergy Score growth inhibition", "setting": "KARPAS-299", "result": "A1 (A1=0.0001 to <1)"}, {"measurement": "Synergy Score inhibition", "setting": "KARPAS-299", "result": "A1 (A1=0.0001 to <1)"}, {"measurement": "CI50 growth inhibition", "setting": "Farage", "result": "T (T=0.5 to <0.7)"}, {"measurement": "CI50 inhibition", "setting": "Farage", "result": "S (S=0.01 to <0.5)"}, {"measurement": "Synergy Score growth inhibition", "setting": "Farage", "result": "A3 (A3=>3)"}, {"measurement": "Synergy Score inhibition", "setting": "Farage", "result": "A2 (A2=1 to <3)"}, {"measurement": "CI50 growth inhibition", "setting": "Mino", "result": "S (S=0.01 to <0.5)"}, {"measurement": "CI50 inhibition", "setting": "Mino", "result": "T (T=0.5 to <0.7)"}, {"measurement": "Synergy Score growth inhibition", "setting": "Mino", "result": "A2 (A2=1 to <3)"}, {"measurement": "Synergy Score inhibition", "setting": "Mino", "result": "A2 (A2=1 to <3)"}, {"measurement": "CI50 growth inhibition", "setting": "OCI-Ly3", "result": "U (U=0.7 to <1)"}, {"measurement": "CI50 inhibition", "setting": "OCI-Ly3", "result": "W (W=≥1)"}, {"measurement": "Synergy Score growth inhibition", "setting": "OCI-Ly3", "result": "A1 (A1=0.0001 to <1)"}, {"measurement": "Synergy Score inhibition", "setting": "OCI-Ly3", "result": "A1 (A1=0.0001 to <1)"}, {"measurement": "CI50 growth inhibition", "setting": "RL", "result": "U (U=0.7 to <1)"}, {"measurement": "CI50 inhibition", "setting": "RL", "result": "U (U=0.7 to <1)"}, {"measurement": "Synergy Score growth inhibition", "setting": "RL", "result": "A2 (A2=1 to <3)"}, {"measurement": "Synergy Score inhibition", "setting": "RL", "result": "A2 (A2=1 to <3)"}, {"measurement": "CI50 growth inhibition", "setting": "OCI-Ly7", "result": "U (U=0.7 to <1)"}, {"measurement": "CI50 inhibition", "setting": "OCI-Ly7", "result": "W (W=≥1)"}, {"measurement": "Synergy Score growth inhibition", "setting": "OCI-Ly7", "result": "A1 (A1=0.0001 to <1)"}, {"measurement": "Synergy Score inhibition", "setting": "OCI-Ly7", "result": "A1 (A1=0.0001 to <1)"}, {"measurement": "CI50 growth inhibition", "setting": "WSU-NHL", "result": "U (U=0.7 to <1)"}, {"measurement": "CI50 inhibition", "setting": "WSU-NHL", "result": "T (T=0.5 to <0.7)"}, {"measurement": "Synergy Score growth inhibition", "setting": "WSU-NHL", "result": "A3 (A3=>3)"}, {"measurement": "Synergy Score inhibition", "setting": "WSU-NHL", "result": "A2 (A2=1 to <3)"}, {"measurement": "CI50 growth inhibition", "setting": "U-2932", "result": "T (T=0.5 to <0.7)"}, {"measurement": "CI50 inhibition", "setting": "U-2932", "result": "W (W=≥1)"}, {"measurement": "Synergy Score growth inhibition", "setting": "U-2932", "result": "A1 (A1=0.0001 to <1)"}, {"measurement": "Synergy Score inhibition", "setting": "U-2932", "result": "A1 (A1=0.0001 to <1)"}, {"measurement": "CI50 inhibition", "setting": "OMP-2", "result": "W (W=≥1)"}, {"measurement": "Synergy Score growth inhibition", "setting": "OMP-2", "result": "A3 (A3=>3)"}, {"measurement": "Synergy Score inhibition", "setting": "OMP-2", "result": "A1 (A1=0.0001 to <1)"}, {"measurement": "CI50 growth inhibition", "setting": "[1]", "result": "U (U=0.7 to <1)"}, {"measurement": "CI50 growth inhibition", "setting": "GRANTA-519", "result": "S (S=0.01 to <0.5)"}, {"measurement": "CI50 inhibition", "setting": "GRANTA-519", "result": "U (U=0.7 to <1)"}, {"measurement": "Synergy Score growth inhibition", "setting": "GRANTA-519", "result": "A2 (A2=1 to <3)"}, {"measurement": "Synergy Score inhibition", "setting": "GRANTA-519", "result": "A1 (A1=0.0001 to <1)"}, {"measurement": "CI50 growth inhibition", "setting": "KARPAS-422", "result": "T (T=0.5 to <0.7)"}, {"measurement": "CI50 inhibition", "setting": "KARPAS-422", "result": "U (U=0.7 to <1)"}, {"measurement": "Synergy Score growth inhibition", "setting": "KARPAS-422", "result": "A1 (A1=0.0001 to <1)"}, {"measurement": "Synergy Score inhibition", "setting": "KARPAS-422", "result": "A1 (A1=0.0001 to <1)"}, {"measurement": "CI50 growth inhibition", "setting": "HH", "result": "W (W=≥1)"}, {"measurement": "CI50 inhibition", "setting": "HH", "result": "W (W=≥1)"}, {"measurement": "Synergy Score growth inhibition", "setting": "HH", "result": "A1 (A1=0.0001 to <1)"}, {"measurement": "Synergy Score inhibition", "setting": "HH", "result": "A1 (A1=0.0001 to <1)"}, {"measurement": "CI50 growth inhibition", "setting": "HBL-1", "result": "U (U=0.7 to <1)"}, {"measurement": "CI50 inhibition", "setting": "HBL-1", "result": "W (W=≥1)"}, {"measurement": "Synergy Score growth inhibition", "setting": "HBL-1", "result": "A2 (A2=1 to <3)"}, {"measurement": "Synergy Score inhibition", "setting": "HBL-1", "result": "A1 (A1=0.0001 to <1)"}]}
